The text below walks through data of patent US20160158377A1, “BCL-XL Inhibitory Compounds and Antibody Drug Conjugates Including the Same” (AbbVie Inc., priority 2014, published 2016).

Structures are written as SMILES. Where two headings read alike, the source gives them in different places. Where only a bound is given, the exact number is not on record here.

In assay [1] the target is Bcl-xL (Homo sapiens, UniProt Q07817). Put plainly: TR-FRET Bcl-xL binding assay (competition with probe F-Bak). As for the experimental part:
For the assay, test compounds were serially diluted in DMSO starting at 50 μM (2× starting concentration; 10% DMSO) and 10 μL transferred into a 384-well plate. 10 μL of a protein/probe/antibody mix was then added to each well at final concentrations listed below:
The samples were then mixed on a shaker for 1 minute and incubated for an additional 2 hours at room temperature. For each assay plate, a probe/antibody and protein/antibody/probe mixture were included as a negative and a positive control, respectively. Fluorescence was measured on the Envision (Perkin Elmer) using a 340/35 nm excitation filter and 520/525 (F-Bak) and 495/510 nm (Tb-labeled anti-his antibody) emission filters. Dissociation constants (Ki) were determined using Wang's equation (Wang, 1995, FEBS Lett. 360:111-114). The TR-FRET assay can be performed in the presence of varying concentrations of human serum (HS) or fetal bovine serum (FBS). Compounds were tested both without HS and in the presence of 1% HS.
For orientation: Time-resolved FRET reads energy transfer from a long-lived donor to a nearby acceptor.

In assay [2] the test system is Molt-4 human acute lymphoblastic leukemia cells. Put plainly: Molt-4 cell viability assay. The assay is classed as cell-based. To be noted: 10% human serum, 48 hours, CellTiter-Glo, read-out: Molt-4 Viability EC50 (nM, 10% HS). The method, then: In one exemplary set of conditions, Molt-4 (ATCC, Manassas, Va.) human acute lymphoblastic leukemia cells were plated 12,500 cells per well in 384-well tissue culture plates (Corning, Corning, N.Y.) in a total volume of 25 μL tissue culture medium supplemented with 10% human serum (Sigma-Aldrich, St. Louis, Mo.) and treated with a 3-fold serial dilution of the compounds of interest from 10 μM to 0.0005 μM. Each concentration was tested in duplicate at least 3 separate times. The number of viable cells following 48 hours of compound treatment was determined using the CellTiter-Glo® Luminescent Cell Viability Assay according to the manufacturer's recommendations (Promega Corp., Madison, Wis.). Compounds were tested in the presence of 10% HS.

Where [3] appears, read: in the presence of 1% human serum (HS), read-out: Bcl-xL Binding Ki (nM, 1% HS).
Where [4] appears, read: without human serum, read-out: Bcl-xL Binding Ki.

Sequence of Bcl-xL (Q07817 whole entry): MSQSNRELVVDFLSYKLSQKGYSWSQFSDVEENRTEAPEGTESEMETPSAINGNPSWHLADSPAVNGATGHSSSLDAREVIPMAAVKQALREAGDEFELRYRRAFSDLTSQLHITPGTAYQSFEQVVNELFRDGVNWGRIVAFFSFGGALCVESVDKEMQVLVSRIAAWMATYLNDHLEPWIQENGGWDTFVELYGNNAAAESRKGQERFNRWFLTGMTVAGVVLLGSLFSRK

What is called Ki is a dissociation constant, usually derived from enzyme kinetics or from competition with a known ligand. One may read the EC50 as the concentration at which the effect is half-maximal. For the compound `CNCCOC12CC3(C)CC(C)(CC(Cn4ncc(-c5ccc(-c6ccc7c(c6)N(C(=O)Nc6nc8ccccc8s6)CCN7C)nc5C(=O)O)c4C)(C3)C1)C2` [Compound W3.03, 6-[4-(1,3-benzothiazol-2-ylcarbamoyl)-1-methyl-1,2,3,4-tetrahydroquinoxalin-6-yl]-3-[1-({3,5-dimethyl-7-[2-(methylamino)ethoxy]tricyclo[3.3.1.1^3,7]dec-1-yl}methyl)-5-methyl-1H-pyrazol-4-yl]pyridine-2-carboxylic acid], the Ki was 0.019 nM in assay [1] (setting [3]) and under 0.001 nM in assay [1] (setting [4]). The EC50 in assay [2] is 1.4 nM.
The like results for `Cc1c(-c2ccc(-c3ccc4cccc(C(=O)Nc5nc6ccccc6s5)c4c3)nc2C(=O)O)cnn1CC12CC3(C)CC(C)(C1)CC(OCCNCCCO)(C3)C2` [Compound W3.37, 6-[8-(1,3-benzothiazol-2-ylcarbamoyl)naphthalen-2-yl]-3-{1-[(3-{2-[(3-hydroxypropyl)amino]ethoxy}-5,7-dimethyltricyclo[3.3.1.1^3,7]dec-1-yl)methyl]-5-methyl-1H-pyrazol-4-yl}pyridine-2-carboxylic acid] were, in that order, 0.58 nM, 0.03 nM and 10.8 nM.
The like results for `CNCCOC12CC3(C)CC(C)(CC(Cn4ncc(-c5ccc(-c6ccc7cccc(C(=O)Nc8nc9ncccc9s8)c7c6)nc5C(=O)O)c4C)(C3)C1)C2` [Compound W3.08, 3-[1-({3,5-dimethyl-7-[2-(methylamino)ethoxy]tricyclo[3.3.1.1^3,7]dec-1-yl}methyl)-5-methyl-1H-pyrazol-4-yl]-6-[8-([1,3]thiazolo[4,5-b]pyridin-2-ylcarbamoyl)naphthalen-2-yl]pyridine-2-carboxylic acid] were, in that order, 0.013 nM, under 0.001 nM and 40 nM.
The corresponding values for `Cc1c(-c2ccc(N3CCc4c(O)ccc(C(=O)Nc5nc6ccccc6s5)c4C3)nc2C(=O)O)cnn1CC12CC3(C)CC(C)(C1)CC(OCCN)(C3)C2` [Compound W3.05, 3-(1-{[3-(2-aminoethoxy)-5,7-dimethyltricyclo[3.3.1.1^3,7]dec-1-yl]methyl}-5-methyl-1H-pyrazol-4-yl)-6-[8-(1,3-benzothiazol-2-ylcarbamoyl)-5-hydroxy-3,4-dihydroisoquinolin-2(1H)-yl]pyridine-2-carboxylic acid] are 0.23 nM, 0.02 nM and 79 nM.
On to `Cc1c(-c2ccc(N3CCc4cccc(C(=O)Nc5nc6ccccc6s5)c4C3)nc2C(=O)O)cnn1CC12CC3(C)CC(C)(C1)CC(OCCNC1CCN(S(C)(=O)=O)CC1)(C3)C2` [Compound W3.30, 6-[8-(1,3-benzothiazol-2-ylcarbamoyl)-3,4-dihydroisoquinolin-2(1H)-yl]-3-(1-{[3,5-dimethyl-7-(2-{[1-(methylsulfonyl)piperidin-4-yl]amino}ethoxy)tricyclo[3.3.1.1^3,7]dec-1-yl]methyl}-5-methyl-1H-pyrazol-4-yl)pyridine-2-carboxylic acid], for which the results for the Ki in assay [1] (setting [3]) and in assay [1] (setting [4]) were 0.891 nM and 0.011 nM, respectively. For the same compound, the EC50 in assay [2] was 16.3 nM.
In the case of `Cc1c(-c2ccc(N3CCc4cccc(C(=O)Nc5nc6ccccc6s5)c4C3)nc2C(=O)O)cnn1CC12CC3(C)CC(C)(C1)CC(OCCNCCC(N)=O)(C3)C2` [Compound W3.32, 3-{1-[(3-{2-[(3-amino-3-oxopropyl)amino]ethoxy}-5,7-dimethyltricyclo[3.3.1.1^3,7]dec-1-yl)methyl]-5-methyl-1H-pyrazol-4-yl}-6-[8-(1,3-benzothiazol-2-ylcarbamoyl)-3,4-dihydroisoquinolin-2(1H)-yl]pyridine-2-carboxylic acid], the values for the Ki in assay [1] (setting [3]) and in assay [1] (setting [4]) were 0.365 nM and under 0.01 nM, respectively. Also, the EC50 in assay [2] was 108 nM.
The corresponding values for `CNCCOC12CC3(C)CC(C)(CC(Cn4ncc(-c5ccc(-c6ccc7c(c6)N(C(=O)Nc6nc8ccccc8s6)CCC7)nc5C(=O)O)c4C)(C3)C1)C2` [Compound W3.01, 6-[1-(1,3-benzothiazol-2-ylcarbamoyl)-1,2,3,4-tetrahydroquinolin-7-yl]-3-[1-({3,5-dimethyl-7-[2-(methylamino)ethoxy]tricyclo[3.3.1.1^3,7]dec-1-yl}methyl)-5-methyl-1H-pyrazol-4-yl]pyridine-2-carboxylic acid] are 0.009 nM, under 0.001 nM and 0.3 nM.
As to `Cc1c(-c2ccc(-c3cc4cccc(C(=O)Nc5nc6ccccc6s5)c4[nH]3)nc2C(=O)O)cnn1CC12CC3(C)CC(C)(C1)CC(OCCN)(C3)C2` [Compound W3.28, 3-(1-{[3-(2-aminoethoxy)-5,7-dimethyltricyclo[3.3.1.1^3,7]dec-1-yl]methyl}-5-methyl-1H-pyrazol-4-yl)-6-[7-(1,3-benzothiazol-2-ylcarbamoyl)-1H-indol-2-yl]pyridine-2-carboxylic acid], the Ki is 0.17 nM in assay [1] (setting [3]) and under 0.01 nM in assay [1] (setting [4]). For the same compound, the EC50 in assay [2] stood at 8.38 nM.
The like results for `CNCC#Cc1cc2c(c(C(=O)Nc3nc4ccccc4s3)c1)CN(c1ccc(-c3cnn(CC45CC6(C)CC(C)(C4)CC(OCCOC)(C6)C5)c3C)c(C(=O)O)n1)CC2` [Compound W3.25, 6-[8-(1,3-benzothiazol-2-ylcarbamoyl)-6-[3-(methylamino)prop-1-yn-1-yl]-3,4-dihydroisoquinolin-2(1H)-yl]-3-(1-{[3-(2-methoxyethoxy)-5,7-dimethyltricyclo[3.3.1.1^3,7]dec-1-yl]methyl}-5-methyl-1H-pyrazol-4-yl)pyridine-2-carboxylic acid] were, in that order, 0.9 nM, 0.138 nM and 424 nM.
The like results for `CNCCOC12CC3(C)CC(C)(CC(Cn4ncc(-c5ccc(-c6ccc7[nH]cc(C(=O)Nc8nc9ccccc9s8)c7c6)nc5C(=O)O)c4C)(C3)C1)C2` [Compound W3.34, 6-[3-(1,3-benzothiazol-2-ylcarbamoyl)-1H-indol-5-yl]-3-[1-({3,5-dimethyl-7-[2-(methylamino)ethoxy]tricyclo[3.3.1.1^3,7]dec-1-yl}methyl)-5-methyl-1H-pyrazol-4-yl]pyridine-2-carboxylic acid] were, in that order, 0.27 nM, 0.041 nM and 187 nM.
As to `CNCCOC12CC3(C)CC(C)(CC(Cn4ncc(-c5ccc(-c6cc7cccc(C(=O)Nc8nc9ccccc9s8)c7[nH]6)nc5C(=O)O)c4C)(C3)C1)C2` [Compound W3.27, 6-[7-(1,3-benzothiazol-2-ylcarbamoyl)-1H-indol-2-yl]-3-[1-({3,5-dimethyl-7-[2-(methylamino)ethoxy]tricyclo[3.3.1.1^3,7]dec-1-yl}methyl)-5-methyl-1H-pyrazol-4-yl]pyridine-2-carboxylic acid], the Ki in assay [1] (setting [3]) was 0.12 nM. Further, the EC50 in assay [2] turned out to be 3.95 nM.
For the compound `CNCCOC12CC3(C)CC(C)(CC(Cn4ncc(-c5ccc(-c6ccc7cccc(C(=O)Nc8nc9cccnc9s8)c7c6)nc5C(=O)O)c4C)(C3)C1)C2` [Compound W3.07, 3-[1-({3,5-dimethyl-7-[2-(methylamino)ethoxy]tricyclo[3.3.1.1^3,7]dec-1-yl}methyl)-5-methyl-1H-pyrazol-4-yl]-6-[8-([1,3]thiazolo[5,4-b]pyridin-2-ylcarbamoyl)naphthalen-2-yl]pyridine-2-carboxylic acid], the inhibitory constant (Ki) in assay [1] (setting [3]) is 0.29 nM; in assay [1] (setting [4]), under 0.001 nM. Moreover, in assay [2], the EC50 turned out to be 432 nM.
The corresponding values for `Cc1c(-c2ccc(N3CCn4cnc(C(=O)Nc5nc6ccccc6s5)c4C3)nc2C(=O)O)cnn1CC12CC3(C)CC(C)(C1)CC(OCCN)(C3)C2` [Compound W3.04, 3-(1-{[3-(2-aminoethoxy)-5,7-dimethyltricyclo[3.3.1.1^3,7]dec-1-yl]methyl}-5-methyl-1H-pyrazol-4-yl)-6-[1-(1,3-benzothiazol-2-ylcarbamoyl)-5,6-dihydroimidazo[1,5-a]pyrazin-7(8H)-yl]pyridine-2-carboxylic acid] are 0.049 nM, under 0.001 nM and 58.9 nM.
In the case of `CNCCOC12CC3(C)CC(C)(CC(Cn4ncc(-c5ccc(-c6ccc7cncc(C(=O)Nc8nc9ccccc9s8)c7c6)nc5C(=O)O)c4C)(C3)C1)C2` [Compound W3.26, 6-[4-(1,3-benzothiazol-2-ylcarbamoyl)isoquinolin-6-yl]-3-[1-({3,5-dimethyl-7-[2-(methylamino)ethoxy]tricyclo[3.3.1.1^3,7]dec-1-yl}methyl)-5-methyl-1H-pyrazol-4-yl]pyridine-2-carboxylic acid], the Ki in assay [1] (setting [3]) was 0.083 nM; in assay [1] (setting [4]), under 0.02 nM. Further, in assay [2], the EC50 amounted to 4.3 nM.
